According to patent publication US8618287B2, “Derivatives of triazines and uracils, their preparation and their application in human therapeutics” (Pierre Fabre Medicament, priority 2008, dated 2013):

Test system: not given
Experiment: not given
Conditions: not given

**Q.** For `Cn1nc(N2CCN(C(=O)c3ccccc3C(F)(F)F)CC2)c(=O)[nH]c1=O` [Example 2, 2-methyl-6-[4-(2-trifluoromethyl-benzoyl)-piperazin-1-yl]-2H-[1,2,4]triazine-3,5-dione], which melting point is on record?
**A.** The melting point was 146 °C.

**Q.** Which melting point does the source give for `Cn1c(=O)[nH]nc(N2CCN(C(=O)c3ccccc3C(F)(F)F)CC2)c1=O` [Example 4, 4-methyl-6-[4-(2-trifluoromethyl-benzoyl)-piperazin-1-yl]-2H-[1,2,4]triazine-3,5-dione] here?
**A.** The melting point was 235 °C.

**Q.** For `Cn1nc(N2CCN(C(=O)c3ccccc3C(F)(F)F)CC2)c(=O)n(C)c1=O` [Example 5, 2,4-dimethyl-6-[4-(2-trifluoromethyl-benzoyl)-piperazin-1-yl]-2H-[1,2,4]triazine-3,5-dione], which melting point is on record?
**A.** The melting point was 76 °C.

**Q.** With `O=C(c1ccccc1C(F)(F)F)N1CCN(c2c[nH]c(=O)[nH]c2=O)CC1` [Example 6, 5-[4-(2-trifluoromethyl-benzoyl)-piperazin-1-yl]-1H-pyrimidine-2,4-dione] as the compound, how does the melting point read?
**A.** The melting point was 285 °C.

**Q.** With `Cn1nc(N2CCC(Oc3cc(C(F)(F)F)ccc3Cl)CC2)c(=O)n(C)c1=O` [Example 29, 6-[4-(2-chloro-5-trifluoromethyl-phenoxy)-piperidin-1-yl]-2,4-dimethyl-2H-[1,2,4]triazine-3,5-dione] as the compound, how does the melting point read?
**A.** Its melting point is 160 °C.

Biological target: T1, Human SCD-1 (Homo sapiens, UniProt O00767)
T1 construct: adding 125 μg of microsomal fraction of HepG2 cells; host or cells: HepG2 human hepatocarcinoma cells (microsomal fraction)
T1 sequence (O00767 1-359): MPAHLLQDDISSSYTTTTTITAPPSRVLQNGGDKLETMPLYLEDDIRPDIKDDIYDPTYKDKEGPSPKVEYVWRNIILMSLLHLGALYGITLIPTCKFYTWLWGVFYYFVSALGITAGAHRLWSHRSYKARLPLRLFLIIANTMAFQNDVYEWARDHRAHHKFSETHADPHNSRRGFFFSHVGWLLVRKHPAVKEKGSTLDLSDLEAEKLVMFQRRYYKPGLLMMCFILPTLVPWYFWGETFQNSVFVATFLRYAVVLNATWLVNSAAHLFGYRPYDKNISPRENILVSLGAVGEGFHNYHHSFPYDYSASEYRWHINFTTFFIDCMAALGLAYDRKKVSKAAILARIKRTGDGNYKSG
Experiment: Human SCD-1 enzymatic activity from microsomes of HepG2 cells (conversion of stearic acid into oleic acid)
Assay type: biochemical
Conditions: 10 μM compound; microsomal fraction of HepG2 cells; relative to carrier 0.1% DMSO
Protocol: In vitro: Human SCD-1 enzymatic activity from microsomes of HepG2 cells after treatment with inhibitory compounds (inhibition %).
Human hepatocarcinoma HepG2 cells (ATCC, HB-8065) are grown to confluence and then trypsinized. The cell pellet is taken up in 10 mM Tris buffer (pH 7.4), saccharose (250 mM) DTT (1 mM) and then the cells are lyzed by sonication. The microsomes are obtained after centrifugation at 10,000 g for 20 minutes a 4° C. followed by centrifugation of the supernatant at 100,000 g for 60 minutes a 4° C. The pellet is taken up in 10 mM Tris buffer (pH 7.4) saccharose (250 mM) at 4° C. and the microsomal proteins are assayed and stored at −196° C. (liquid nitrogen).
The enzymatic reaction measures the conversion of stearic acid (a C18:0 fatty acid) into oleic acid (C18:1 fatty acid) by SCD-1. The enzymatic reaction is started by adding 125 μg of microsomal fraction of HepG2 cells to tubes (total reaction volume of 500 μl) containing 62 μM of stearic acid (45 μM of stearic acid and 17 μM of [^14C] stearic acid) in a phosphate buffer at 100 mM (pH 7.16) with 7.2 mM of ATP, 0.54 mM of CoA, 6 mM of MgCl2, 0.8 mM of NADH and the inhibitory compound or the carrier (0.1% DMSO). The tubes are incubated for 20 minutes at 37° C. and the enzymatic reaction is then stopped by adding KOH (12%) and saponification for 30 minutes at 80° C. After acidification (3N HCl), the fatty acids are extracted twice with ethyl ether, evaporated under nitrogen before being taken up with a methanol/dichloromethane (3:1) mixture. The product of the reaction (C18:1) is separated from the substrate of the reaction (C18:0) by HPLC (Perkin Elmer, C18 reverse phase column) coupled to a on-line radioactivity detector (FlowOne). Enzymatic activity is calculated in picomoles of stearic acid converted into oleic acid per minute and per mg of protein. For each inhibitory compound, an inhibition % is determined relatively to the reference enzymatic activity (carrier 0.1% DMSO). Sterculic acid is the reference inhibitory compound (Gomez F. E., Bauman D. E., Ntambi J. M., Fox B. G. Effects of sterculic acid on stearoyl-CoA desaturase in differentiating […] adipocytes. Biochem Biophys Res Commun. 300 316-326 (2003)).

**Q.** For `CCCCCCCCC1=C(CCCCCCCC(=O)O)C1` [Sterculic acid, reference compound], which “HSCD-1 (HEPG2) % inh. (10 μM)” value is on record?
**A.** Its value is 100%.

Same assay, conditions: 10 μM compound; microsomal fraction of HepG2 cells; relative to carrier 0.1% DMSO; read-out: HSCD-1 (HEPG2) % inh. (10 μM)

**Q.** With `CCCCCCCn1c(=O)c(N2CCN(C(=O)c3ccccc3C(F)(F)F)CC2)nn(C)c1=O` [Example 1, 4-heptyl-2-methyl-6-[4-(2-trifluoromethyl-benzoyl)-piperazin-1-yl]-2H-[1,2,4]triazine-3,5-dione] as the compound, how does the inhibition at 10 µM read?
**A.** Its inhibition at 10 µM is 11%.

**Q.** With `Cn1nc(N2CCN(C(=O)c3ccccc3C(F)(F)F)CC2)c(=O)[nH]c1=O` [Example 2, 2-methyl-6-[4-(2-trifluoromethyl-benzoyl)-piperazin-1-yl]-2H-[1,2,4]triazine-3,5-dione] as the compound, how does the inhibition at 10 µM read?
**A.** The inhibition at 10 µM was 63%.

**Q.** For `Cn1c(=O)c(N2CCN(C(=O)c3ccccc3C(F)(F)F)CC2)nn(CCCC(F)(F)F)c1=O` [Example 3, 4-methyl-2-(4,4,4-trifluoro-butyl)-6-[4-(2-trifluoromethyl-benzoyl)-piperazin-1-yl]-2H-[1,2,4]triazine-3,5-dione], which inhibition at 10 µM is on record?
**A.** Its inhibition at 10 µM is 90%.

**Q.** Which inhibition at 10 µM does the source give for `Cn1c(=O)[nH]nc(N2CCN(C(=O)c3ccccc3C(F)(F)F)CC2)c1=O` [Example 4, 4-methyl-6-[4-(2-trifluoromethyl-benzoyl)-piperazin-1-yl]-2H-[1,2,4]triazine-3,5-dione] here?
**A.** The inhibition at 10 µM was 77%.

**Q.** Which inhibition at 10 µM does the source give for `Cn1nc(N2CCN(C(=O)c3ccccc3C(F)(F)F)CC2)c(=O)n(C)c1=O` [Example 5, 2,4-dimethyl-6-[4-(2-trifluoromethyl-benzoyl)-piperazin-1-yl]-2H-[1,2,4]triazine-3,5-dione] here?
**A.** Its inhibition at 10 µM is 43%.

**Q.** With `O=C(c1ccccc1C(F)(F)F)N1CCN(c2c[nH]c(=O)[nH]c2=O)CC1` [Example 6, 5-[4-(2-trifluoromethyl-benzoyl)-piperazin-1-yl]-1H-pyrimidine-2,4-dione] as the compound, how does the inhibition at 10 µM read?
**A.** Its inhibition at 10 µM is 73%.

**Q.** With `Cn1nc(N2CCC(Oc3ccccc3C(F)(F)F)CC2)c(=O)n(C)c1=O` [Example 11, 2,4-dimethyl-6-[4-(2-trifluoromethyl-phenoxy)-piperidin-1-yl]-2H-[1,2,4]triazine-3,5-dione] as the compound, how does the inhibition at 10 µM read?
**A.** The inhibition at 10 µM was 92%.

**Q.** For `CCCCCCCn1c(=O)c(N2CCC(Oc3ccccc3C(F)(F)F)CC2)nn(CCC#N)c1=O` [Example 12, 3-{4-heptyl-3,5-dioxo-6-[4-(2-trifluoromethyl-phenoxy)-piperidin-1-yl]-4,5-dihydro-3H-[1,2,4]triazin-2-yl}-propionitrile], which inhibition at 10 µM is on record?
**A.** The inhibition at 10 µM was 71%.

**Q.** Which inhibition at 10 µM does the source give for `CCCCn1nc(N2CCC(Oc3ccccc3C(F)(F)F)CC2)c(=O)n(C)c1=O` [Example 13, 2-butyl-4-methyl-6-[4-(2-trifluoromethyl-phenoxy)-piperidin-1-yl]-2H-[1,2,4]triazine-3,5-dione] here?
**A.** Its inhibition at 10 µM is 75%.

**Q.** With `CNC(=O)Cn1nc(N2CCC(Oc3ccccc3C(F)(F)F)CC2)c(=O)n(C)c1=O` [Example 14, N-methyl-2-{4-methyl-3,5-dioxo-6-[4-(2-trifluoromethyl-phenoxy)-piperidin-1-yl]-4,5-dihydro-3H-[1,2,4]triazin-2-yl}-acetamide] as the compound, how does the inhibition at 10 µM read?
**A.** Its inhibition at 10 µM is 74%.

**Q.** With `CCOCCn1nc(N2CCC(Oc3ccccc3C(F)(F)F)CC2)c(=O)n(C)c1=O` [Example 15, 2-(2-ethoxy-ethyl)-4-methyl-6-[4-(2-trifluoromethyl-phenoxy)-piperidin-1-yl]-2H-[1,2,4]triazine-3,5-dione] as the compound, how does the inhibition at 10 µM read?
**A.** The inhibition at 10 µM was 74%.

**Q.** For `Cn1c(=O)c(N2CCC(Oc3ccccc3C(F)(F)F)CC2)nn(CCc2c[nH]c3ccccc23)c1=O` [Example 16, 2-[2-(1H-Indol-3-yl)-ethyl]-4-methyl-6-[4-(2-trifluoromethyl-phenoxy)-piperidin-1-yl]-2H-[1,2,4]triazine-3,5-dione], which inhibition at 10 µM is on record?
**A.** Its inhibition at 10 µM is 57%.

**Q.** Which inhibition at 10 µM does the source give for `Cn1c(=O)c(N2CCC(Oc3ccccc3C(F)(F)F)CC2)nn(CCCC(=O)c2cccs2)c1=O` [Example 19, 4-methyl-2-(4-oxo-4-thiophen-2-yl-butyl)-6-[4-(2-trifluoromethyl-phenoxy)-piperidin-1-yl]-2H-[1,2,4]triazine-3,5-dione] here?
**A.** Its inhibition at 10 µM is 57%.

**Q.** With `Cn1c(=O)c(N2CCC(Oc3ccccc3Cl)CC2)nn(CCC#N)c1=O` [Example 23, 3-{6-[4-(2-chloro-phenoxy)-piperidin-1-yl]-4-methyl-3,5-dioxo-4,5-dihydro-3H-[1,2,4]triazin-2-yl}-propionitrile] as the compound, how does the inhibition at 10 µM read?
**A.** Its inhibition at 10 µM is 73%.

**Q.** For `Cn1c(=O)c(N2CCC(Oc3ccccc3Cl)CC2)nn(CCCC(F)(F)F)c1=O` [Example 25, 6-[4-(2-chloro-phenoxy)-piperidin-1-yl]-4-methyl-2-(4,4,4-trifluoro-butyl)-2H-[1,2,4]triazine-3,5-dione], which inhibition at 10 µM is on record?
**A.** Its inhibition at 10 µM is 70%.

**Q.** Which inhibition at 10 µM does the source give for `Cn1nc(N2CCC(Oc3ccccc3Cl)CC2)c(=O)n(C)c1=O` [Example 27, 6-[4-(2-chloro-phenoxy)-piperidin-1-yl]-2,4-dimethyl-2H-[1,2,4]triazine-3,5-dione] here?
**A.** Its inhibition at 10 µM is 82%.

**Q.** With `Cn1nc(N2CCC(Oc3ccccc3F)CC2)c(=O)n(C)c1=O` [Example 28, 6-[4-(2-fluoro-phenoxy)-piperidin-1-yl]-2,4-dimethyl-2H-[1,2,4]triazine-3,5-dione] as the compound, how does the inhibition at 10 µM read?
**A.** The inhibition at 10 µM was 50%.

**Q.** For `Cn1nc(N2CCC(Oc3cc(C(F)(F)F)ccc3Cl)CC2)c(=O)n(C)c1=O` [Example 29, 6-[4-(2-chloro-5-trifluoromethyl-phenoxy)-piperidin-1-yl]-2,4-dimethyl-2H-[1,2,4]triazine-3,5-dione], which inhibition at 10 µM is on record?
**A.** The inhibition at 10 µM was 71%.

**Q.** For `Cn1c(=O)c(N2CCN(C(=O)c3cc(F)ccc3C(F)(F)F)CC2)nn(CCCC(F)(F)F)c1=O` [Example 47, 6-[4-(5-fluoro-2-trifluoromethyl-benzoyl)-piperazin-1-yl]-4-methyl-2-(4,4,4-trifluoro-butyl)-2H-[1,2,4]triazine-3,5-dione], which inhibition at 10 µM is on record?
**A.** Its inhibition at 10 µM is 84%.

**Q.** With `CC(C)CCn1nc(N2CCN(C(=O)c3cc(F)ccc3C(F)(F)F)CC2)c(=O)n(C)c1=O` [Example 48, 6-[4-(5-fluoro-2-trifluoromethyl-benzoyl)-piperazin-1-yl]-4-methyl-2-(3-methyl-butyl)-2H-[1,2,4]triazine-3,5-dione] as the compound, how does the inhibition at 10 µM read?
**A.** The inhibition at 10 µM was 64%.

**Q.** For `Cn1c(=O)c(N2CCN(Cc3ccccc3C(F)(F)F)CC2)nn(CCCC(F)(F)F)c1=O` [Example 57, 4-methyl-2-(4,4,4-trifluoro-butyl)-6-[4-(2-trifluoromethyl-benzyl)-piperazin-1-yl]-2H-[1,2,4]triazine-3,5-dione], which inhibition at 10 µM is on record?
**A.** The inhibition at 10 µM was 71%.

**Q.** With `Cn1c(=O)[nH]nc(N2CCN(C(=O)c3cc(F)ccc3C(F)(F)F)CC2)c1=O` [Example 69, 6-[4-(5-fluoro-2-trifluoromethyl-benzoyl)-piperazin-1-yl]-4-methyl-2H-[1,2,4]triazine-3,5-dione] as the compound, how does the inhibition at 10 µM read?
**A.** Its inhibition at 10 µM is 84%.

**Q.** For `Cn1c(=O)[nH]nc(N2CCN(C(=O)c3ccc(F)cc3C(F)(F)F)CC2)c1=O` [Example 70, 6-[4-(4-fluoro-2-trifluoromethyl-benzoyl)-piperazin-1-yl]-4-methyl-2H-[1,2,4]triazine-3,5-dione], which inhibition at 10 µM is on record?
**A.** The inhibition at 10 µM was 66%.

**Q.** With `Cn1c(=O)[nH]nc(N2CCN(Cc3ccc(F)cc3C(F)(F)F)CC2)c1=O` [Example 71, 6-[4-(4-fluoro-2-trifluoromethyl-benzyl)-piperazin-1-yl]-4-methyl-2H-[1,2,4]triazine-3,5-dione] as the compound, how does the inhibition at 10 µM read?
**A.** Its inhibition at 10 µM is 50%.

**Q.** For `CCCCn1nc(N2CCN(C(=O)c3ccccc3C(F)(F)F)CC2)c(=O)n(C)c1=O` [Example 74, 2-butyl-4-methyl-6-[4-(2-trifluoromethyl-benzoyl)-piperazin-1-yl]-2H-[1,2,4]triazine-3,5-dione], which inhibition at 10 µM is on record?
**A.** Its inhibition at 10 µM is 60%.
